Test results as given in patent US8338335B2, “Synergistic herbicidal composition containing fluroxypyr and penoxsulam, halosulfuron-methyl, imazamox or imazethapyr” (Dow Agrosciences, LLC, priority 2009, dated 2012).
Where “and” joins values, the source holds several entries; their conditions need not be identical. Equal values may be shown once.

Key:
[1] = test system: Panicum dichotomiflorum, PANDI; fall panicum; assay: Postemergence herbicidal activity of mixtures in the field, PANDI; format: in vivo
Experimental: (§1) Field trials were conducted in rice and turf using standard herbicide small plot research methodology. Plots varied from 3×3 meter (m) to 3×10 m (width×length) with 4 replicates per treatment. The rice crop was grown using normal cultural practices for fertilization, seeding, watering, flooding and maintenance to ensure good growth of the crop and the weeds. The turf crop was a permanent established crop of centipedegrass that was grown and maintained under normal cultural practices for fertilization, watering, mowing and disease maintenance to ensure good growth of the crop and the weeds.
(§2) All treatments in the field trials were applied using a carbon dioxide (CO2) backpack sprayer calibrated to apply 187 L/ha spray volume. Commercially available products of penoxsulam and fluoroxypyr-meptyl were mixed in water at appropriately formulated product rates to achieve the desired rates based on a unit area of application (hectare) to achieve the desired rates as shown. Treatments were rated at 7 to 33 days after application as compared to the untreated control plants. Visual weed control was scored on a scale of 0 to 100 percent where 0 corresponds to no injury and 100 corresponds to complete kill. […]

[2] = test system: Leptochloa spp, LEFSS; sprangletop; assay: Postemergence herbicidal activity of mixtures in the field, LEFSS; format: in vivo
Experimental: as §1
All treatments in the field trials were applied using a carbon dioxide (CO2) backpack sprayer calibrated to apply 187 L/ha spray volume. […] Treatments were rated at 7 to 33 days after application as compared to the untreated control plants. Visual weed control was scored on a scale of 0 to 100 percent where 0 corresponds to no injury and 100 corresponds to complete kill.
(§3) Colby's equation was used to determine the herbicidal effects expected from the mixtures (Colby, S. R. Calculation of the synergistic and antagonistic response of herbicide combinations. Weeds 1967, 15, 20-22).
(§4) The following equation was used to calculate the expected activity of mixtures containing two active ingredients, A and B: Expected=A+B−(A×B/100)

[3] = test system: Scirpus juncoides (SCPJU); Japanese bulrush; assay: Postemergence herbicidal activity of mixtures in the greenhouse, SCPJU; format: in vivo
Experimental: (§5) Seeds of the desired test plant species were planted in 80% mineral soil/20% grit planting mixture, which typically has a pH of 7.2 and an organic matter content of about 2.9 percent, in plastic pots with a surface area of 128 square centimeters (cm^2). The growing medium was steam sterilized. The plants were grown for 7-19 days in a greenhouse with an approximate 14-hour (h) photoperiod which was maintained at about 29° C. during the day and 26° C. during the night. Nutrients and water were added on a regular basis and supplemental lighting was provided with overhead metal halide 1000-Watt lamps as necessary. The plants were treated with postemergence foliar applications when they reached the third to fourth true leaf stage. All treatments were applied using a randomized complete block trial design, with 4 replications per treatment.
Treatments consisted of the compounds as listed in Tables 1, 3, 5 and 6, each compound applied alone and in combination. […]
(§6) The treated plants and control plants were placed in a greenhouse as described above and watered by sub-irrigation to prevent wash-off of the test compounds. […] Visual weed control was scored on a scale of 0 to 100 percent where 0 corresponds to no injury and 100 corresponds to complete kill. […]

[4] = test system: Caperonia palustris, CNPPA; Texasweed; assay: Postemergence herbicidal activity of mixtures in the field, CNPPA; format: in vivo
Experimental: as §1
All treatments in the field trials were applied using a carbon dioxide (CO2) backpack sprayer calibrated to apply 187 L/ha spray volume. Commercially available products of penoxsulam and fluoroxypyr-meptyl were mixed in water at appropriately formulated product rates to achieve the desired rates based on a unit area of application (hectare) to achieve the desired rates as shown. Treatments were rated at 7 to 33 days after application as compared to the untreated control plants. Visual weed control was scored on a scale of 0 to 100 percent where 0 corresponds to no injury and 100 corresponds to complete kill.
as §3, §4

Centipedegrass (ERLOP) = assay: Crop injury (safening) in the field, centipedegrass; format: in vivo, Eremochloa ophiuroides
Experimental: as §1, §2

[5] = test system: Plantago lanceolata, PLALA; narrow-leaved plantain; assay: Postemergence herbicidal activity of mixtures in the field, PLALA; format: in vivo
Experimental: as §1, §2

[6] = test system: Sesbania exaltata, SEBEX; Hemp sesbania; assay: Postemergence herbicidal activity of mixtures in the field, SEBEX; format: in vivo
Experimental: as §1, §2

[7] = test system: Echinochloa crus-galli (ECHCG); barnyardgrass; assay: Postemergence herbicidal activity of mixtures in the greenhouse, ECHCG; format: in vivo
Experimental: as §5
(§7) Treatments consisted of the compounds as listed in Tables 1, 3, 5 and 6, each compound applied alone and in combination. Formulated amounts of penoxsulam, halosulfuron-methyl, imazamox and fluoroxypyr-meptyl ester, were placed in 60 milliliter (mL) glass vials and dissolved in a volume of 60 mL of a water solution containing Agri-dex crop oil concentrate in a 1% volume per volume (v/v) ratio. Compound requirements are based upon a 12 mL application volume at a rate of 187 liters per hectare (L/ha). Spray solutions of the mixtures were prepared by adding the stock solutions to the appropriate amount of dilution solution to form 12 mL spray solution with active ingredients in single and two way combinations. Formulated compounds were applied to the plant material with an overhead Mandel track sprayer equipped with 8002E nozzles calibrated to deliver 187 L/ha at a spray height of 18 inches (43 centimeters (cm)) above average plant canopy.
(§8) The treated plants and control plants were placed in a greenhouse as described above and watered by sub-irrigation to prevent wash-off of the test compounds. Treatments were rated at 7 to 21 days after application (DAA) as compared to the untreated control plants. Visual weed control was scored on a scale of 0 to 100 percent where 0 corresponds to no injury and 100 corresponds to complete kill.
as §3, §4

[8] = test system: Brachiaria platyphylla (BRAPP); broadleaf signalgrass; assay: Postemergence herbicidal activity of mixtures in the greenhouse, BRAPP; format: in vivo; settings: 21 DAA
Experimental: as §5, §7, §8, §3, §4

[9] = test system: Cyperus esculentus (CYPES); yellow nutsedge; assay: Postemergence herbicidal activity of mixtures in the greenhouse, CYPES; format: in vivo; settings: 21 DAA
Experimental: as §5, §7, §8, §3, §4

[10] = test system: Leptochloa chinensis (LEFCH); Chinese sprangletop; assay: Postemergence herbicidal activity of mixtures in the greenhouse, LEFCH; format: in vivo; settings: 21 DAA
Experimental: as §5, §7, §6

Sunflower (HELAN) = assay: Crop injury (safening) in the field, sunflower; format: in vivo, Helianthus annuus; settings: Fluroxypyr-meptyl 100 g ae/ha alone
[11] = Halosulfuron-methyl 4.4 g ai/ha alone
[12] = Halosulfuron-methyl 18 g ai/ha alone
[13] = Fluroxypyr-meptyl 200 g ae/ha alone
[14] = Fluroxypyr-meptyl 97 g ae/ha alone
[15] = Fluroxypyr-meptyl 290 g ae/ha alone

With `CCc1cnc(C2=NC(C)(C(C)C)C(=O)N2)c(C(=O)O)c1` (centres unmarked) [Imazethapyr, 2-[4,5-dihydro-4-methyl-4-(1-methylethyl)-5-oxo-1H-imidazol-2-yl]-5-ethyl-3-pyridinecarboxylic acid] the “% Control PANDI Ob” value ([1]; Imazethapyr 70 g ai/ha alone) was 40% and the “% Control LEFSS Ob” value ([2]; Imazethapyr 70 g ai/ha alone) was 28%.
With `COc1cnc(OC)n2nc(NS(=O)(=O)c3c(OCC(F)F)cccc3C(F)(F)F)nc12` [Penoxsulam, 2-(2,2-difluoroethoxy)-N-(5,8-dimethoxy-[1,2,4]triazolo[1,5-c]pyrimidin-2-yl)-6-(trifluoromethyl)benzenesulfonamide] the “% Control SCPJU Ob” value ([3]; Penoxsulam 10 g ai/ha alone) was 2%, the “% Control CNPPA Ob” value ([4]; Penoxsulam 35 g ai/ha alone) was 67% and the “% Injury ERLOP Ob” value (Centipedegrass (ERLOP); in vivo) was 15%. The “% Control PLALA Ob” value ([5]; Penoxsulam 15 g ai/ha alone) was 13%, the “% Control SEBEX Ob” value ([6]; Penoxsulam 22 g ai/ha alone) was 76% and the “% Control ECHCG Ob” value ([7]; Penoxsulam 15 g ai/ha alone) was 84% and 78% and 62%.
With `COCc1cnc(C2=NC(C)(C(C)C)C(=O)N2)c(C(=O)O)c1` (centres unmarked) [Imazamox, 2-[4,5-dihydro-4-methyl-4-(1-methylethyl)-5-oxo-1H-imidazol-2-yl]-5-(methoxymethyl)-3-pyridinecarboxylic acid] the “% Control BRAPP Ob” value ([8]; Imazamox 4.4 g ai/ha alone) was 3%, the “% Control BRAPP Ob” value ([8]; Imazamox 8.8 g ai/ha alone) was 46% and the “% Control CYPES Ob” value ([9]; Imazamox 8.8 g ai/ha alone) was 8%. The “% Control CYPES Ob” value ([9]; Imazamox 18 g ai/ha alone) was 42%, the “% Control ECHCG Ob” value ([7]; Imazamox 4.4 g ai/ha alone, 21 DAA) was 1.3% and the “% Control ECHCG Ob” value ([7]; Imazamox 8.8 g ai/ha alone, 21 DAA) was 29%. For the same molecule, the “% Control ECHCG Ob” value ([7]; Imazamox 18 g ai/ha alone, 21 DAA) was 85%.
`COC(=O)c1c(Cl)nn(C)c1S(=O)(=O)NC(=O)Nc1nc(OC)cc(OC)n1` [Halosulfuron-methyl, methyl 3-chloro-5-[[[[(4,6-dimethoxy-2-pyrimidinyl)amino]carbonyl]amino]sulfonyl]-1-methyl-1H-pyrazole-4-carboxylate] was tested, and the “% Control CYPES Ob” value [9, 11] was 68%, the “% Control CYPES Ob” value ([9]; Halosulfuron-methyl 8.8 g ai/ha alone) was 73% and the “% Control CYPES Ob” value [9, 12] was 78%. For the same molecule, the “% Control ECHCG Ob” value ([7]; Halosulfuron-methyl 8.8 g ai/ha alone, 21 DAA) was 3%, the “% Control ECHCG Ob” value ([7]; Halosulfuron-methyl 18 g ai/ha alone, 21 DAA) was 6% and the “% Control LEFCH Ob” value [10, 11] was 2%. For the same molecule, the “% Control LEFCH Ob” value [10, 12] was 8%.
For `CCCCCCC(C)OC(=O)COc1nc(F)c(Cl)c(N)c1Cl` (centres unmarked) [Fluroxypyr-meptyl, fluoroxypyr-meptyl ester], the “% Control BRAPP Ob” value ([8]; Fluroxypyr-meptyl 50 g ae/ha alone) was 10%, the “% Control BRAPP Ob” value ([8]; Fluroxypyr-meptyl 100 g ae/ha alone) was 23% and the “% Control BRAPP Ob” value [8, 13] was 20%. The “% Control SCPJU Ob” value ([3]; Fluroxypyr-meptyl 70 g ae/ha alone) was 60%, the “% Control CNPPA Ob” value [4, 14] was 45% and the “% Control CNPPA Ob” value [4, 15] was 60%. The “% Control PANDI Ob” value [1, 15] was 0%, the “% Injury HELAN Ob” value (Sunflower (HELAN)) was 31% and 34% and the “% Control CYPES Ob” value ([9]; Fluroxypyr-meptyl 50 g ae/ha alone, Table 5) was 1%. For the same molecule, the “% Control CYPES Ob” value ([9]; Fluroxypyr-meptyl 100 g ae/ha alone, Table 5) was 3%, the “% Control CYPES Ob” value ([9]; Fluroxypyr-meptyl 100 g ae/ha alone, Table 6) was 10% and the “% Control CYPES Ob” value ([9]; Fluroxypyr-meptyl 200 g ae/ha alone, Table 5) was 8%. The “% Control CYPES Ob” value ([9]; Fluroxypyr-meptyl 200 g ae/ha alone, Table 6) was 9%, the “% Injury ERLOP Ob” value (Centipedegrass (ERLOP); Fluroxypyr-meptyl 210 g ae/ha alone, field) was 6% and the “% Control PLALA Ob” value ([5]; Fluroxypyr-meptyl 140 g ae/ha alone) was 0%. The “% Control SEBEX Ob” value [6, 14] was 57%, the “% Control LEFSS Ob” value [2, 15] was 0% and the “% Control ECHCG Ob” value ([7]; Fluroxypyr-meptyl 50 g ae/ha alone, 21 DAA, Table 5) was 6%. For the same molecule, the “% Control ECHCG Ob” value ([7]; Fluroxypyr-meptyl 50 g ae/ha alone, 21 DAA, Table 6) was 1.3%, the “% Control ECHCG Ob” value ([7]; Fluroxypyr-meptyl 100 g ae/ha alone, 21 DAA, Table 5) was 2% and the “% Control ECHCG Ob” value ([7]; Fluroxypyr-meptyl 100 g ae/ha alone, 21 DAA, Table 6) was 4%. For the same molecule, the “% Control ECHCG Ob” value ([7]; Fluroxypyr-meptyl 200 g ae/ha alone, 21 DAA, Table 5) was 11%, the “% Control ECHCG Ob” value ([7]; Fluroxypyr-meptyl 200 g ae/ha alone, 21 DAA, Table 6) was 6% and the “% Control ECHCG Ob” value ([7]; Fluroxypyr-meptyl 340 g ae/ha alone, Table 1) was 0%. For the same molecule, the “% Control LEFCH Ob” value [10, 13] was 15%.
